# From patent publication US20230346831A1, “METHODS FOR TREATING […] USING LOW DOSE CARBON MONOXIDE” (priority 2020, published 2023)
# Assays:
# [1] = tested on: non-malignant BJ fibroblasts; assay: in vitro transwell migration assay; format: cell-based; conditions: 250 ppm CO
# Protocol: Migration of different cancer cells under control air or 250 ppm CO treatment with or without supplement of 30 µM hemin was determined using in vitro transwell migration chamber with a serum gradient. Indicated cell lines were seeded into the transwell inserts. 16 hours later, cells on the top of the upper chambers were removed, and cells on the bottom surface of the transwell inserts were fixed, stained with crystal violet, and counted from eight randomly picked fields in three independent experiments. Error bars represent SEM. *: P < 0.05, two-sided t-test. Scale bar, 100 µm. […] Cells were seeded in the upper chamber of 8-µm porous polycarbonate membranes with DMEM containing 0% or 1% FBS, 0.2 mM L-glutamine, 1% penicillin/streptomycin. The lower chambers were filled with DMEM containing 10% or 20% FBS, 0.2 mM L-glutamine, and 1% penicillin/streptomycin (please see Table 1).
# 6.5 mm Transwell with 8.0 µm Pore Polycarbonate Membrane Insert (Corning, NY, Cat. No. 3422) was used for the cell migration assay (FIG. 1J). After 16 hours of incubation, cells migrated to the opposite side of the upper chambers were fixed with 4% paraformaldehyde, stained with 0.2% crystal violet for 30 min and counted in five fields under × 20 magnification. In parallel, cells were seeded on 24-well plates for proliferation assay. […] The optical density was measured at 595 nm (OD595). […]
# [2] = tested on: Bach 1; assay: Western blot analysis; format: cell-based, human; conditions: two breast cancer cell lines (MCF7, MDA-MB-231); 250 ppm CO
# Protocol: (§1) 1.5 × 10^6 cells were seeded in 6-cm cell culture plates with DMEM containing 10% FBS, 0.2 mM L-glutamine and 1% penicillin/streptomycin. Additionally, MCF7/TGL/pQ was cultured in media containing 0.5 µgml^-1 puromycin and 25 mM HEPES. After 16 hours of incubation, cells were lysed with RIPA buffer (0.1% SDS, 1% TritonX-100, 0.5% sodium deoxycholate, 25 mM Tris pH 8.0, 150 mM NaCl, and 1 mM EDTA) supplemented with a protease inhibitor mixture and PhosSTOP (Roche, Basel, Switzerland). Proteins were quantified with Bradford assay (Bio-Rad, Hercules CA). Equal amounts of proteins were separated with SDS-PAGE and transferred to nitrocellulose membranes. […] Protein bands were visualized by enhanced chemical luminescence (Pierce, Dallas, TX).
# (§2) To investigate how CO reduces heme levels, whether CO decreased the transportation of heme into the cytosol was examined. […] Likewise, changes in protein levels of Bach 1 (a physiological repressor of HO-1 and a pro-metastatic transcription factor, whose degradation is reported to be mediated by heme in Nrf2-mutated lung cancer) was not detected (FIG. 4E). […]
# [3] = tested on: HO-1; assay: Western blot analysis; format: cell-based, human; conditions: two breast cancer cell lines (MCF7, MDA-MB-231); 250 ppm CO
# Protocol: as §1, §2
structure (smiles),measurement,setting,value
"[C-]#[O+] [CO, Carbon monoxide]",migration,[1],only slightly reduced
same,changes in protein levels of Bach 1,[2],not detected
same,increase of HO-1 expression,[3],not detected
